According to US20090227799A1 (priority 2004, published 2009):
Values after ≈ are worked out from the molar mass of the structure shown.

Tested on: opfGWT1 expressing yeast
Assay: Measurement of antimalarial agent activity using opfGWT1-expressing yeast (growth inhibition, MIC)
Format: cell-based
Settings: Saccharomyces cerevisiae, 48 h, read-out: MIC (μg/m1) opfGWT1 […]; minimum concentration at which turbidity (660 nm) was 0.1 or less; SD culture medium, 96 well plate, 30° C. for 2 days; final highest concentration 25 μg/ml
Protocol: Compounds having antimalarial activity were screened, using the opfGWT1 expressing yeast, which expresses the malaria protozoa GWT1 gene. The opfGWT1 expressing yeast was prepared according to the methods described in Example 1 to Example 3 of WO 2004/048567.
The test compound was serially diluted twice in SD culture medium (Sabouraud-dextrose culture medium) so that the final highest concentration was 25 μg/ml and dispensed into a 96 well plate so as to obtain 50 μl/well. An overnight culture solution of the opfGWT1 expressing yeast diluted to 1/1000 was added therein in the amount of 50 μl/well addition, the plate was incubated at 30° C. for 2 days, then turbidity at 660 nm was measured.

SMILES | MIC
Nc1ncccc1C(=O)NCc1ccc(Cc2cccc(Cl)c2)s1 | 12.5 µg/mL (≈ 34.9 µM)
Nc1ncccc1C(=O)NCc1ccc(Cc2cccc(Cl)c2)o1 [Reference Example A-4, 2-Amino-N-(5-(3-chloro-benzyl)-furan-2-ylmethyl)-nicotinamide] | 6.25 µg/mL (≈ 18.3 µM)
Nc1ncccc1C(=O)NCc1ccc(Cc2cccc(F)c2)o1 [Reference Example A-6, 2-Amino-N-(5-(3-fluoro-benzyl)-furan-2-ylmethyl)-nicotinamide] | 25 µg/mL (≈ 76.8 µM)
Nc1ccc(C(=O)NCc2ccc(Oc3ccccc3)s2)c(N)n1 [Reference Example A-54, 2,6-diamino-N-(5-phenoxy-thiophene-2-ylmethyl)-nicotinamide] | 25 µg/mL (≈ 73.4 µM)
Cc1cccc(Oc2ccc(CNC(=O)c3cccnc3N)s2)c1 [Reference Example A-64, 2-Amino-N-(5-m-tolyloxy-thiophen-2-ylmethyl)-nicotinamide] | 12.5 µg/mL (≈ 36.8 µM)
Nc1ncccc1C(=O)NCc1ccc(Oc2ccccc2)s1 [Reference Example A-67, 2-Amino-N-(5-phenoxy-thiophen-2-ylmethyl)-nicotinamide] | 12.5 µg/mL (≈ 38.4 µM)
Nc1ncccc1C(=O)NCc1ccc(Oc2cccc(F)c2)s1 [Reference Example A-68, 2-Amino-N-(5-(3-fluoro-phenoxy)-thiophen-2-ylmethyl)-nicotinamide] | 12.5 µg/mL (≈ 36.4 µM)
Nc1ncccc1C(=O)NCc1ccc(Oc2ccc(F)cc2)s1 [Reference Example A-69, 2-Amino-N-(5-(4-fluoro-phenoxy)-thiophen-2-ylmethyl)-nicotinamide] | 25 µg/mL (≈ 72.8 µM)
Nc1ncccc1C(=O)NCc1cc(Oc2ccccc2)cs1 [Reference Example A-72, 2-Amino-N-(4-phenoxy-thiophen-2-ylmethyl)-nicotinamide] | 12.5 µg/mL (≈ 38.4 µM)
Nc1ncccc1C(=O)NCc1ccc(Oc2cccc(Cl)c2)s1 [Reference Example A-73, 2-Amino-N-(5-(3-chloro-phenoxy)-thiophen-2-ylmethyl)-nicotinamide] | 6.25 µg/mL (≈ 17.4 µM)
CC(=O)c1ccc(C(=O)NCc2ccc(Oc3ccccc3)s2)c(N)n1 [Reference Example A-98, 6-Acetyl-2-amino-N-(5-phenoxy-thiophen-2-ylmethyl)-nicotinamide] | 12.5 µg/mL (≈ 34 µM)
CCOCCNc1ccc(C(=O)NCc2ccc(Oc3ccccc3)s2)c(N)n1 [Reference Example A-105, 2-Amino-6-(2-ethoxy-ethylamino)-N-(5-phenoxy-thiophen-2-ylmethyl)-nicotinamide] | 25 µg/mL (≈ 60.6 µM)
COCc1ccc(C(=O)NCc2ccc(Oc3cccc(F)c3)s2)c(N)n1 [Reference Example A-123, 2-Amino-N-(5-(3-fluoro-phenoxy)-thiophen-2-ylmethyl)-6-methoxymethyl-nicotinamide] | 25 µg/mL (≈ 64.5 µM)
C=Cc1ccc(C(=O)NCc2ccc(Oc3ccccc3)s2)c(N)n1 [Reference Example A-168, 2-Amino-N-(5-phenoxy-thiophen-2-ylmethyl)-6-vinyl-nicotinamide] | 12.5 µg/mL (≈ 35.6 µM)
Nc1ccc(C(=O)NCc2ccc(OCc3cccc(Cl)c3)cc2)c(N)n1 [Reference Example A-173, 2,6-Diamino-N-(4-(3-chloro-benzyloxy)-benzyl)-nicotinamide] | 12.5 µg/mL (≈ 32.6 µM)
Nc1nc(CCF)ccc1C(=O)NCc1ccc(Oc2ccccc2)s1 [Reference Example A-177, 2-Amino-6-(2-fluoro-ethyl)-N-(5-phenoxy-thiophen-2-ylmethyl)-nicotinamide] | 25 µg/mL (≈ 67.3 µM)
CCCCOCc1ccc(CNC(=O)c2ccc(COC)nc2N)cc1 [Reference Example A-182] | 6.25 µg/mL (≈ 17.5 µM)
CCCCOc1ccc(CNC(=O)c2ccc(COC)nc2N)cc1 [Reference Example A-188, 2-Amino-N-(4-butoxy-benzyl)-6-methoxymethyl-nicotinamide] | 6.25 µg/mL (≈ 18.2 µM)
O=C(NCc1ccc(Oc2cccc(F)c2)s1)c1ccc2ncccc2c1 [Reference Example E-65, Quinoline-6-carboxylic acid (5-(3-fluorophenoxy)thiophen-2-ylmethyl)amide] | 25 µg/mL (≈ 66.1 µM)
